# pIC50: −log10 of the molar value.
# What was measured:
# [1] = MTD (maximum tolerated dose) study, intraperitoneal dosing; format: in vivo, mouse
# Procedure: Initially a small scale study was carried out to determine the MTD (maximum tolerated dose) in Swiss-Webster mice using intraperitoneal dosing (IP). […] As 16f provided a marginally better toxicity profile in the MTD study, it was decided to carry out more extensive in vivo tumour xenograft studies on this molecule.
# [2] = test system: A549 (lung); test: MTT cytotoxicity assay, A549; format: cell-based; conditions: Homo sapiens, A549, 96 h, read-out: IC50 (nM) A549
# Procedure: (§1) The cytotoxicity potential of the compounds of the invention 16c-h was compared with the comparative compounds 16a, 16b and GWL-78 in a number of tumour cell lines and the non-cancer cell line WI38 after 96 hours exposure using the MTT (3-(4,5-Dimethylthiazol-2-yl)-2,5-diphenyltetrazolium bromide) colorimetric assay, as described below.
# (§2) A panel of several types of human cancer cell lines including epidermoid (A431), lung (A549), ovarian (A2780) and breast (MCF7 and MDAMB-231), as well as the non-tumour cell line WI38, were used to determine the cytotoxicity of the compounds. The cells were grown in normal conditions at 37° C. under a 5% CO2 humidified atmosphere, either in Dulbecco's Modified Eagle Medium or Modified Eagle Medium (depending on the cell line), supplemented with 10% fetal bovine serum (Biosera, UK), 1% L-glutamine, 1% non-essential amino acids and 0.05% hydrocortisone (Gibco, Invitrogen, USA). Cells were then seeded into 96-well plates in a total volume of 160 μl, and allowed to reach a 30-40% degree of confluence before starting the experiment. The ligands were dissolved in sterilized ultrapure water at a maximum concentration of 100 μM, and serial decimal dilutions prepared. These were added to the cells in a volume of 40 μl. After 96 hours of continuous exposure to each ligand, the cytotoxicity was determined by the MTT (3-(4,5-Dimethylthiazol-2-yl)-2,5-diphenyltetrazolium bromide) (Lancaster Synthesis Ltd, UK) colorimetric assay (Skehan P, S. R., et al., Journal of the National Cancer Institute 1990, 82, 1107). Absorbance was quantified by spectrophotometry at A=570 nm (ELx808, Bio-Tek Instruments, Inc., USA). IC50 values were calculated by a dose-response analysis using the Origin 6.0™ software.
# [3] = test system: primary CLL cells; test: Annexin V/propidium iodide flow cytometry assay in primary CLL cells; format: cell-based; conditions: CLL cell
# Procedure: The cytotoxicity potential of the compounds of the invention 16c-h was also compared with the comparative compounds 16a, 16b and GWL-78 in a primary CLL cell lines using the Annexin V assay (van Engeland, M, et al., Cytometry 1998, 31, 1-9), as described below.
# Freshly isolated peripheral blood CLL cells (1×10^8 mL^−1) were cultured in RPMI medium (Invitrogen, Paisley, U.K.) supplemented with 100 U/mL penicillin, […] streptomycin, and 10% fetal calf serum. The cells were incubated at 37° C. in a humidified 5% CO2 atmosphere in the presence of each compound. All compounds were dissolved in DMSO and were evaluated in serial dilutions against the primary CLL cells. In addition, control cultures were carried out to which no drug was added. The cytotoxic effects of the compounds were quantified using an annexin V/propidium iodide flow cytometry assay (Bender Medsystems, Vienna, Austria). All assays were performed in duplicate, and LD50 values were calculated from sigmoidal dose-response curves using the Prism 6.0 software (Graphpad Software Inc., San Diego, Calif.). The sigmoidal dose-response curves were derived by plotting log [compound concentration] against the percentage apoptosis induced by that concentration. A wide range of concentrations were used to establish the biologically active range for each individual compound.
# [4] = test system: EGR; test: Transcription Factor Activation Profiling Array Assay (Signosis), HeLa; format: cell-based; conditions: 10 nM, 4 hours
# Procedure: (§3) 16f was evaluated in a commercial Transcription Factor Activation Profiling Array Assay™ (Signosis) using the HeLa cell line. In this assay the activities of 48 transcription factors could be monitored simultaneously using a collection of biotin-labeled DNA probes based on the consensus sequences of individual transcription factor DNA-binding sites. […] The activity of NF-κB was reduced by almost 50%.
# [5] = test system: NF-κB; test: as above; format: cell-based; conditions: 10 nM, 4 hours
# Procedure: as §3
# [6] = test system: SMAD; test: as above; format: cell-based; conditions: 10 nM, 4 hours
# Procedure: as §3
# [7] = test system: OCT-4; test: as above; format: cell-based; conditions: 10 nM, 4 hours
# Procedure: as §3
# [8] = test system: NFAT; test: as above; format: cell-based; conditions: 10 nM, 4 hours
# Procedure: as §3
# [9] = test system: Mia Paca 2; test: MTT cytotoxicity assay, Mia Paca 2; format: cell-based; conditions: Homo sapiens, MIA PaCa-2, 96 h, read-out: IC50 (nM) Mia Paca 2
# Procedure: as §1, §2
# [10] = test system: MDA MB 231 breast cancer xenograft; test: ER-negative MDA MB 231 breast cancer xenograft study; format: in vivo, mouse; conditions: for in vivo antitumour activity compared to control mice: female MF1 nude mice
# Procedure: In vivo studies of the activity of 16f were carried out in an ER-negative MDA MB 231 breast cancer xenograft in a mouse model. The human breast cancer cell line MDA-MB-231 (5×10^8 cells) was employed to establish xenografts in the flanks of female MF1 nude mice, 2-3 months old and weighing 20-25 g. Subsequent passaging was by the subcutaneous implantation of small tumour pieces (approx 1 mm^3) into the flank. When the tumours reached approx. 0.06 cm^3 (three weeks post implantation) they were divided into 3 groups of 4 mice. The drug treated groups were administered with an IV dose (in DMSO) of either 250 μg/Kg/day or 300 μg/Kg/day for 5 consecutive days followed by two drug free days for 3 weeks, followed by 2 consecutive days in week 4 at which point the dosage was stopped.
# [11] = test system: Mia Paca 2 pancreatic cancer xenograft; test: Mia Paca 2 pancreatic cancer xenograft in mouse model; format: in vivo
# Procedure: (§4) An in vivo study of 16f was carried out in a pancreatic cancer xenograft mouse model, in a similar manner to the above. The drug (16f) treated group was administered an IV dose of 300 μg/Kg/day for 5 consecutive days followed by 2 drug free days, and the cycle was continued for 3 weeks.
# [12] = test system: WI38; test: MTT cytotoxicity assay, non-tumour cell line WI38; format: cell-based; conditions: Homo sapiens, WI-38, 96 h, read-out: IC50 (nM) WI38
# Procedure: as §1, §2
# [13] = test system: phosphorylated IκBα; test: Western Blotting in CLL cells, surrogate for NF-κB activity; format: cell-based; conditions: 24 hours incubation, concentrations down to 0.1 nM
# Source text: (§5) Based on the hypothesis that 16f may down-regulate the expression of NF-κB-dependent genes (e.g., IκB, BCL2, BCLXL) by binding to the cognate DNA sequence of NF-κB, thereby blocking interaction of the transcription factor protein and inhibiting transcription of a number of genes, it was decided to explore this possibility in CLL cells in which NF-κB signaling is known to be active and closely correlates with the initiation and progression of malignancy.
# [14] = test system: phosphorylated-p65; test: as above; format: cell-based; conditions: 24 hours incubation
# Source text: as §5
# [15] = test system: NFκB; test: Immunohistochemical staining of xenograft tumour cross-sections; format: in vivo, mouse; conditions: treated vs controls
# Procedure: as §4
# [16] = test system: A2780 (ovarian); test: MTT cytotoxicity assay, A2780; format: cell-based; conditions: Homo sapiens, A2780, 96 h, read-out: IC50 (nM) A2780
# Procedure: as §1, §2
# [17] = test system: A431 (epidermoid); test: MTT cytotoxicity assay, A431; format: cell-based; conditions: Homo sapiens, A-431, 96 h, read-out: IC50 (nM) A431
# Procedure: as §1, §2
compound,measurement,setting,value
"COC(=O)c1cc(-c2ccc(NC(=O)c3nc(NC(=O)CCCOc4cc5c(cc4OC)C(=O)N4CCC[C@H]4C=N5)cn3C)cc2)cn1C [Compound 16f, (S)-methyl 4-(4-(4-(4-(7-methoxy-5-oxo-2,3,5,11a-tetrahydro-1H-pyrrolo[2,1-c][1,4]benzodiazepine-8-yloxy)butanamido)-1-methyl-1H-imidazole-2-carboxamido)phenyl)-1-methyl-1H-pyrrole-2-carboxylate]",weight loss,"[1]; Swiss-Webster mice, IP, 400 μg/Kg/day",insignificant weight loss
same,weight loss or other signs of toxicity,"[1]; repeat MTD experiment, 350 μg/Kg/day",did not show any weight loss or other signs of toxicity
same,IC50,[2],0.034 nM
same,pIC50,[3],9.77
same,down-regulation of EGR activity,[4],at least 30%
same,reduction of NF-κB activity,[5]; specific value,~50%
same,down-regulation of NF-κB activity,"[5]; top five, at least",at least 30%
same,down-regulation of SMAD activity,[6],at least 30%
same,down-regulation of OCT-4 activity,[7],at least 30%
same,down-regulation of NFAT activity,[8],at least 30%
same,IC50,[9],0.0021 nM
same,tumour re-growth after last IV dose,"[10]; 300 μg/Kg dose level, up to 3 weeks after last dose",did not re-grow
same,in vivo antitumour activity compared to control mice,[10]; IV 250 μg/Kg/day,prominent in vivo antitumour activity
same,in vivo antitumour activity compared to control mice,[10]; IV 300 μg/Kg/day,prominent in vivo antitumour activity
same,signs of toxicity,[10]; IV 250 and 300 μg/Kg dose levels,without any signs of toxicity
same,tumour growth after last administered dose,"[11]; 300 μg/Kg, up to 21 days after last dose",no growth was observed
same,signs of toxicity,[11]; IV 300 μg/Kg dose level,without any signs of toxicity
same,antitumour activity compared to control mice,"[11]; IV 300 μg/Kg/day, 5 days on/2 days off, 3 weeks",prominent antitumour activity
same,IC50,[12],129 nM
same,suppression of phosphorylated IκBα,[13],significant suppression
same,effect on phosphorylated-p65,[14],only a marginal effect
same,immunohistochemical staining findings,[15],consistent with NFκB inhibition
same,IC50,[16],0.021 nM
same,IC50,[17],0.018 nM

# — US9376440B2, “Pyrrolobenzodiazepines as antiproliferative agents” (MEDIMMUNE LIMITED, priority 2012, dated 2016)
